Results as given in patent US20250333376A1, “CRYSTAL FORMS OF BMX AND PREPARATION THEREOF” (Novelwise Pharmaceutical Corporation, priority 2024, published 2025).
≈ marks a conversion by molar mass, not a printed value. Entries after “also recorded” stand apart in the source; their conditions may differ. Like-named read-outs stand apart in the source and are kept apart here. Values belong to the compound of their own block, whether it stands above or below them.

Tests used:
Assay type in all cases: physicochemical
[1] = Hygroscopicity determination by DVS
Experimental: The hygroscopicity of the Crystal Form A of Compound BMX was determined using Surface Measurement Systems Ltd. DVS resolution equipment. The sample was loaded into balance pan, typically 10-30 mg, and equilibrated at 0% relative humidity (RH). When the material has dried, the RH is increased with 10% per step for 1 hour per increment, ending at 95% RH. After completion of the sorption cycle, the sample was dried using the same method. […] The software used for data collection is DVS Control Software for 21 CFR Part 11 v1.0.3.0. Data analysis is performed using DVS Standard Analysis Suite v7.2.0.9 (Standard).

[2] = Solubility of Crystal Form A in process solvents and aqueous buffer systems; settings: for solubility at 24 h: thermodynamic from solid
Experimental: The solubility of this form was tested in the process solvents (Ethyl acetate and hexane) and in aqueous buffer systems. 100 mg of Crystal Form A of Compound BMX was weighed into 4 mL vials with 2 mL of the specified solvent/aqueous buffer system being added. These solutions were shaken at room temperature for 24 hours. The pH was monitored in time and remained in the correct range. Samples were filtered and diluted (5× in ACN/MeOH 1/1) and measured using H PLC. The concentration of the samples is determined using a calibration line.

[3] = Photo stress stability, amorphous form versus Crystal Form A; settings: for Degradation: 48 hours of exposure to photo-stress conditions (cool white fluorescent lamp and UV fluorescent lamp 320-400 nm)
From the text: The amorphous Form and the Crystal Form A of Compound BMX samples were exposed at a cool white fluorescent lamp that has an output similar to that specified by ISO 10977 and UV fluorescent lamp with a spectral distribution from 320 nm to 400 nm for evaluating the photo stress stability.

[4] = Competitive slurry experiments to determine the most stable polymorphic form; settings: competitive slurry in 2-propanol, XRPD
Experimental: No material of Crystal Form C, D, or E was available since these could not be reproduced. The competitive slurry was performed using Crystal Forms B, […], F and poorly crystalline material, with 10 mg of each form being added in two 1 mL vials.
The competitive slurry experiment in 2-methyl tetrahydrofuran gave a clear solution and the experiment in 2-propanol gave a white slurry.

[5] = Stability test of Form B slurried in water
[6] = Stability of polymorphic forms stored at 40° C./75% RH for 4 days
Experimental: Both Crystal Form A and Crystal Form D were found in different solvent combinations using different crystallization techniques. […] Crystal Form C was only observed once, being found in a slurry experiment at 50° C. in DMSO/Ethanol (60/40-%). […] All plates were stored at 40° C./75% RH for 4 days in order to determine the stability of the polymorphic forms.

[7] = Solubility of amorphous material of Compound BMX by the shake flask method; settings: for solubility at 24 h / solubility at 15 min: organic solvent or mixture, thermodynamic from solid, shake flask
Experimental: The solubility of amorphous material of Compound BMX was determined by the shake flask method. The amorphous material was obtained by dissolving 500 mg of the Crystal From A of Compound BMX in 10 mL dichloromethane, this solution was evaporated to dryness in vacuum conditions (0 mbar, RT).
The solvents for the solubility determination were selected based on the Principal Component Analysis (PCA) of properties, which means that some pharmaceutically unattractive solvents were included to create a better understanding of the parameter space. The Principal Component Analysis focusses on polarity, polarizability and hydrogen bonding.
Subsequently, the samples were filtered and diluted for LC analysis and the concentration is determined using a calibration line.

[8] = solvent Methyl-tert-butyl ether

Mass uptake (DVS) ([1]; 0% to 95% RH, 10% per step, 1 hour per increment): 0.035 wt %
Stability under humid conditions (XRPD, DSC/TGA, microscopy pre and post DVS) ([1]; after DVS up to 95% RH): stable under these humid conditions
Solubility ([2]; Ethyl acetate, room temperature, 24 hours): 20780 µg/mL (≈ 52.3 mM)
solubility at 24 h ([2]; FaSSIF, pH 6.5, fassif, pH 6.5, room temperature, 24 hours): 10 µg/mL (≈ 0.0252 mM)
solubility at 24 h ([2]; FeSSIF, pH 5.8, fessif, pH 5.8, room temperature, 24 hours): 180 µg/mL (≈ 0.453 mM)
Solubility (in words) ([2]; Hexane, water, FaSSGF, FASSIF and phosphate buffer pH 7.4): insoluble
solubility at 24 h ([2]; ethyl acetate, organic solvent or mixture, room temperature, 24 hours): 20800 µg/mL (≈ 52.3 mM)
Degradation [3]: 10%
Most stable polymorphic form [4]: most stable form
Most stable polymorphic form ([4]; listed as Cystal Form A): thermodynamically most stable form
SMILES: COc1ccc(COc2c(/C=C/C(=O)NO)ccc(OC)c2CC=C(C)C)cc1 [Crystal Form A]
Hygroscopicity (in words) ([1]; DVS): non-hygroscopic; also recorded: not hygroscopic
Changes in polymorphic form after solubility test (XRPD) ([2]; all solvents/buffers of Table 6, 24 hours at room temperature): No changes in polymorphic form were observed
Stability under stress conditions compared with the amorphous form ([3]; photo-stress, 48 hours): significantly more stable than the amorphous form

Changes in XRPD on slurrying in water ([5]; water, room temperature, 4 hours, 24 hours, 4 days and 7 days): No changes were observed in the XRPD
SMILES: COc1ccc(COc2c(/C=C/C(=O)NO)ccc(OC)c2CC=C(C)C)cc1 [Crystal Form B]
Conversion on seeding with Crystal Form A ([5]; seeds of Crystal Form A, slurrying at 50° C.): could not be converted into Crystal Form A
Stability in water (in words) ([5]; slurry in water): very stable in water; also recorded: remained stable in water

SMILES: COc1ccc(COc2c(/C=C/C(=O)NO)ccc(OC)c2CC=C(C)C)cc1 [Crystal Form C]
Stability of the polymorphic form [6]: unstable and converted into Crystal Form D soon
Stability of the polymorphic form ([6]; listed as Cystal Form C): not a stable form and converted into polymorphic Crystal Form D

solubility at 24 h ([7]; solvent 2-Ethly-1-butanol): 8800 µg/mL (≈ 22.1 mM)
solubility at 15 min ([7]; solvent Acetonitrile): 10000 to 33000 µg/mL (≈ 25.2 to 83 mM)
solubility at 24 h ([7]; solvent Anisole): 9700 µg/mL (≈ 24.4 mM)
solubility at 15 min ([7]; solvent Dimethyl sulfoxide): 31000 to 94000 µg/mL (≈ 78 to 236 mM)
solubility at 15 min ([7]; solvent Ethyl butyl ketone): 10000 to 33000 µg/mL (≈ 25.2 to 83 mM)
solubility at 24 h ([7]; solvent Ethyl sulfoxide): 6900 µg/mL (≈ 17.4 mM)
solubility at 15 min ([7]; solvent Methanol): 31000 to 94000 µg/mL (≈ 78 to 236 mM)
solubility at 24 h [7, 8]: 3300 µg/mL (≈ 8.3 mM)
USP classification ([7]; solvent 2-Ethly-1-butanol): Slightly soluble
USP classification ([7]; solvent Acetonitrile): Sparingly soluble
USP classification ([7]; solvent Anisole): Slightly soluble
USP classification ([7]; solvent Dimethyl sulfoxide): Soluble
USP classification ([7]; solvent Ethyl butyl ketone): Sparingly soluble
USP classification ([7]; solvent Ethyl sulfoxide): Slightly soluble
USP classification ([7]; solvent Methanol): Soluble
USP classification [7, 8]: Slightly soluble
USP classification ([7]; solvent Water): Practically insoluble
USP classification ([7]; solvent n-Heptane): Practically insoluble
Degradation ([3]; listed as amorphous form): 20%
SMILES: COc1ccc(COc2c(/C=C/C(=O)NO)ccc(OC)c2CC=C(C)C)cc1 [amorphous material of Compound BMX]
Stability of the polymorphic form ([6]; listed as amorphous solid): converted into a new polymorphic form: Crystal Form E
